Measured values as given in ChEMBL document CHEMBL2429768, “Eco-friendly synthesis and antimicrobial activities of substituted-5-(1H-indol-3-yl)methylene)-2,2-dimethyl-1,3-dioxane-4,6-dione derivatives” (2013).
Converted amounts (≈) assume the structure as drawn.

Assays:
Type in all cases: functional
Rhizoctonia solani [1] = test: Antifungal activity against Rhizoctonia solani at 200 ug/ml after 72 hrs by agar well diffusion method; details: read-out: DIZ
Aspergillus niger [2] = test: Antifungal activity against Aspergillus niger after 72 hrs by agar well diffusion method
Bacillus subtilis [3] = test: Antibacterial activity against Bacillus subtilis at 300 ug/ml after 24 hrs by agar well diffusion method; details: read-out: DIZ
Rhizoctonia solani [4] = test: Antifungal activity against Rhizoctonia solani at 100 ug/ml after 72 hrs by agar well diffusion method; details: read-out: DIZ
Aspergillus flavus [5] = test: Antifungal activity against Aspergillus flavus at 200 ug/ml after 72 hrs by agar well diffusion method; details: read-out: DIZ
Rhizoctonia solani [6] = test: Antifungal activity against Rhizoctonia solani at 500 ug/ml after 72 hrs by agar well diffusion method; details: read-out: DIZ
Escherichia coli [7] = test: Antibacterial activity against Escherichia coli ATCC 8739 at 500 ug/ml after 24 hrs by agar well diffusion method; details: ATCC 8739, 24 h, read-out: DIZ
Staphylococcus aureus [8] = test: Antibacterial activity against Staphylococcus aureus ATCC 6538 at 200 ug/ml after 24 hrs by agar well diffusion method; details: ATCC 6538, 24 h, read-out: DIZ
Fusarium oxysporum [9] = test: Antifungal activity against Fusarium oxysporum after 72 hrs by agar well diffusion method
Staphylococcus aureus [10] = test: Antibacterial activity against Staphylococcus aureus ATCC 6538 at 300 ug/ml after 24 hrs by agar well diffusion method; details: ATCC 6538, 24 h, read-out: DIZ
Klebsiella pneumoniae [11] = test: Antibacterial activity against Klebsiella pneumoniae after 24 hrs by agar well diffusion method
Fusarium oxysporum [12] = test: Antifungal activity against Fusarium oxysporum at 500 ug/ml after 72 hrs by agar well diffusion method; details: read-out: DIZ
Rhizoctonia solani [13] = test: Antifungal activity against Rhizoctonia solani at 300 ug/ml after 72 hrs by agar well diffusion method; details: read-out: DIZ
Klebsiella pneumoniae [14] = test: Antibacterial activity against Klebsiella pneumoniae at 300 ug/ml after 24 hrs by agar well diffusion method; details: read-out: DIZ
Fusarium oxysporum [15] = test: Antifungal activity against Fusarium oxysporum at 50 ug/ml after 72 hrs by agar well diffusion method; details: read-out: DIZ
Bacillus subtilis [16] = test: Antibacterial activity against Bacillus subtilis at 50 ug/ml after 24 hrs by agar well diffusion method; details: read-out: DIZ
Escherichia coli [17] = test: Antibacterial activity against Escherichia coli ATCC 8739 at 50 ug/ml after 24 hrs by agar well diffusion method; details: ATCC 8739, 24 h, read-out: DIZ
Aspergillus flavus [18] = test: Antifungal activity against Aspergillus flavus at 50 ug/ml after 72 hrs by agar well diffusion method; details: read-out: DIZ
Aspergillus niger [19] = test: Antifungal activity against Aspergillus niger at 200 ug/ml after 72 hrs by agar well diffusion method; details: read-out: DIZ
Bacillus subtilis [20] = test: Antibacterial activity against Bacillus subtilis at 200 ug/ml after 24 hrs by agar well diffusion method; details: read-out: DIZ
Staphylococcus aureus [21] = test: Antibacterial activity against Staphylococcus aureus ATCC 6538 at 50 ug/ml after 24 hrs by agar well diffusion method; details: ATCC 6538, 24 h, read-out: DIZ
Aspergillus niger [22] = test: Antifungal activity against Aspergillus niger at 500 ug/ml after 72 hrs by agar well diffusion method; details: read-out: DIZ
Klebsiella pneumoniae [23] = test: Antibacterial activity against Klebsiella pneumoniae at 100 ug/ml after 24 hrs by agar well diffusion method; details: read-out: DIZ
Fusarium oxysporum [24] = test: Antifungal activity against Fusarium oxysporum at 300 ug/ml after 72 hrs by agar well diffusion method; details: read-out: DIZ
Aspergillus flavus [25] = test: Antifungal activity against Aspergillus flavus at 300 ug/ml after 72 hrs by agar well diffusion method; details: read-out: DIZ
Escherichia coli [26] = test: Antibacterial activity against Escherichia coli ATCC 8739 at 300 ug/ml after 24 hrs by agar well diffusion method; details: ATCC 8739, 24 h, read-out: DIZ
Rhizoctonia solani [27] = test: Antifungal activity against Rhizoctonia solani after 72 hrs by agar well diffusion method
Aspergillus flavus [28] = test: Antifungal activity against Aspergillus flavus after 72 hrs by agar well diffusion method
Staphylococcus aureus [29] = test: Antibacterial activity against Staphylococcus aureus ATCC 6538 at 100 ug/ml after 24 hrs by agar well diffusion method; details: ATCC 6538, 24 h, read-out: DIZ
Staphylococcus aureus [30] = test: Antibacterial activity against Staphylococcus aureus ATCC 6538 at 500 ug/ml after 24 hrs by agar well diffusion method; details: ATCC 6538, 24 h, read-out: DIZ
Klebsiella pneumoniae [31] = test: Antibacterial activity against Klebsiella pneumoniae at 50 ug/ml after 24 hrs by agar well diffusion method; details: read-out: DIZ
Bacillus subtilis [32] = test: Antibacterial activity against Bacillus subtilis at 100 ug/ml after 24 hrs by agar well diffusion method; details: read-out: DIZ
Escherichia coli [33] = test: Antibacterial activity against Escherichia coli ATCC 8739 at 100 ug/ml after 24 hrs by agar well diffusion method; details: ATCC 8739, 24 h, read-out: DIZ
Aspergillus niger [34] = test: Antifungal activity against Aspergillus niger at 100 ug/ml after 72 hrs by agar well diffusion method; details: read-out: DIZ
Aspergillus niger [35] = test: Antifungal activity against Aspergillus niger at 50 ug/ml after 72 hrs by agar well diffusion method; details: read-out: DIZ
Aspergillus flavus [36] = test: Antifungal activity against Aspergillus flavus at 100 ug/ml after 72 hrs by agar well diffusion method; details: read-out: DIZ
Escherichia coli [37] = test: Antibacterial activity against Escherichia coli ATCC 8739 at 200 ug/ml after 24 hrs by agar well diffusion method; details: ATCC 8739, 24 h, read-out: DIZ
Bacillus subtilis [38] = test: Antibacterial activity against Bacillus subtilis at 500 ug/ml after 24 hrs by agar well diffusion method; details: read-out: DIZ
Staphylococcus aureus [39] = test: Antibacterial activity against Staphylococcus aureus ATCC 6538 after 24 hrs by agar well diffusion method; details: ATCC 6538, 24 h
Fusarium oxysporum [40] = test: Antifungal activity against Fusarium oxysporum at 200 ug/ml after 72 hrs by agar well diffusion method; details: read-out: DIZ
Klebsiella pneumoniae [41] = test: Antibacterial activity against Klebsiella pneumoniae at 200 ug/ml after 24 hrs by agar well diffusion method; details: read-out: DIZ
Bacillus subtilis [42] = test: Antibacterial activity against Bacillus subtilis after 24 hrs by agar well diffusion method
Aspergillus flavus [43] = test: Antifungal activity against Aspergillus flavus at 500 ug/ml after 72 hrs by agar well diffusion method; details: read-out: DIZ
Escherichia coli [44] = test: Antibacterial activity against Escherichia coli ATCC 8739 after 24 hrs by agar well diffusion method; details: ATCC 8739, 24 h
Aspergillus niger [45] = test: Antifungal activity against Aspergillus niger at 300 ug/ml after 72 hrs by agar well diffusion method; details: read-out: DIZ
Klebsiella pneumoniae [46] = test: Antibacterial activity against Klebsiella pneumoniae at 500 ug/ml after 24 hrs by agar well diffusion method; details: read-out: DIZ
Rhizoctonia solani [47] = test: Antifungal activity against Rhizoctonia solani at 50 ug/ml after 72 hrs by agar well diffusion method; details: read-out: DIZ
Fusarium oxysporum [48] = test: Antifungal activity against Fusarium oxysporum at 100 ug/ml after 72 hrs by agar well diffusion method; details: read-out: DIZ

`Cn1cc(C=C2C(=O)OC(C)(C)OC2=O)c2ccccc21` gave a zone of inhibition at 200 µg/mL (Rhizoctonia solani [1]) of 16 mm, an MIC (Aspergillus niger [2]) of 40 µg/mL (≈ 140 µM) and a zone of inhibition at 300 µg/mL (Bacillus subtilis [3]) of 15 mm. The zone of inhibition at 100 µg/mL (Rhizoctonia solani [4]) was 12 mm, the zone of inhibition at 200 µg/mL (Aspergillus flavus [5]) was 12 mm and the zone of inhibition at 500 µg/mL (Rhizoctonia solani [6]) was 29 mm. The zone of inhibition at 500 µg/mL (Escherichia coli [7]) was 30 mm, the zone of inhibition at 200 µg/mL (Staphylococcus aureus [8]) was 14 mm and the MIC (Fusarium oxysporum [9]) was 35 µg/mL (≈ 123 µM). For the same compound, the zone of inhibition at 300 µg/mL (Staphylococcus aureus [10]) was 18 mm, the MIC (Klebsiella pneumoniae [11]) was 15 µg/mL (≈ 52.6 µM) and the zone of inhibition at 500 µg/mL (Fusarium oxysporum [12]) was 29 mm. It also gave a zone of inhibition at 300 µg/mL (Rhizoctonia solani [13]) of 21 mm, a zone of inhibition at 300 µg/mL (Klebsiella pneumoniae [14]) of 23 mm and a zone of inhibition at 50 µg/mL (Fusarium oxysporum [15]) of 7 mm. The zone of inhibition at 50 µg/mL (Bacillus subtilis [16]) was 4 mm, the zone of inhibition at 50 µg/mL (Escherichia coli [17]) was 8 mm and the zone of inhibition at 50 µg/mL (Aspergillus flavus [18]) was 4 mm. For the same compound, the zone of inhibition at 200 µg/mL (Aspergillus niger [19]) was 14 mm, the zone of inhibition at 200 µg/mL (Bacillus subtilis [20]) was 12 mm and the zone of inhibition at 50 µg/mL (Staphylococcus aureus [21]) was 6 mm. It also gave a zone of inhibition at 500 µg/mL (Aspergillus niger [22]) of 25 mm, a zone of inhibition at 100 µg/mL (Klebsiella pneumoniae [23]) of 14 mm and a zone of inhibition at 300 µg/mL (Fusarium oxysporum [24]) of 21 mm. It also gave a zone of inhibition at 300 µg/mL (Aspergillus flavus [25]) of 15 mm, a zone of inhibition at 300 µg/mL (Escherichia coli [26]) of 20 mm and an MIC (Rhizoctonia solani [27]) of 35 µg/mL (≈ 123 µM). The MIC (Aspergillus flavus [28]) was 40 µg/mL (≈ 140 µM), the zone of inhibition at 100 µg/mL (Staphylococcus aureus [29]) was 10 mm and the zone of inhibition at 500 µg/mL (Staphylococcus aureus [30]) was 25 mm. For the same compound, the zone of inhibition at 50 µg/mL (Klebsiella pneumoniae [31]) was 9 mm, the zone of inhibition at 100 µg/mL (Bacillus subtilis [32]) was 9 mm and the zone of inhibition at 100 µg/mL (Escherichia coli [33]) was 13 mm. For the same compound, the zone of inhibition at 100 µg/mL (Aspergillus niger [34]) was 10 mm, the zone of inhibition at 50 µg/mL (Aspergillus niger [35]) was 6 mm and the zone of inhibition at 100 µg/mL (Aspergillus flavus [36]) was 9 mm. For the same compound, the zone of inhibition at 200 µg/mL (Escherichia coli [37]) was 16 mm, the zone of inhibition at 500 µg/mL (Bacillus subtilis [38]) was 23 mm and the MIC (Staphylococcus aureus [39]) was 25 µg/mL (≈ 87.6 µM). For the same compound, the zone of inhibition at 200 µg/mL (Fusarium oxysporum [40]) was 16 mm, the zone of inhibition at 200 µg/mL (Klebsiella pneumoniae [41]) was 18 mm and the MIC (Bacillus subtilis [42]) was 30 µg/mL (≈ 105 µM). For the same compound, the zone of inhibition at 500 µg/mL (Aspergillus flavus [43]) was 23 mm, the MIC (Escherichia coli [44]) was 15 µg/mL (≈ 52.6 µM) and the zone of inhibition at 300 µg/mL (Aspergillus niger [45]) was 18 mm. The zone of inhibition at 500 µg/mL (Klebsiella pneumoniae [46]) was 31 mm, the zone of inhibition at 50 µg/mL (Rhizoctonia solani [47]) was 7 mm and the zone of inhibition at 100 µg/mL (Fusarium oxysporum [48]) was 12 mm.
